The values that follow come from patent US20160250285A1, “NEUROPROTECTIVE PEPTIDES” (priority 2013, published 2016).

“Also recorded” adds a separate entry of the source. Ends that are not written are not given here.

As a reminder, the IC50 is the point on the concentration scale where inhibition reaches its midpoint.

Series [1] relates to permanent middle cerebral artery occlusion (MCAO) stroke model. The series is described as follows: Rat permanent middle cerebral artery occlusion (MCAO) stroke model. It is filed as in vivo. As for the experimental part:
Administration of peptide (DR9: rrrrrrrrr-NH2; R12, R15, R18, protamine sulphate; protamine) or vehicle (saline: 0.9% NaCl) treatment solution was performed at 30 min post-MCAO. The peptide treatment comprised DR9 in saline (600 μl) to provide an intravenous loading dose of 1 μmol/kg or 1000 nmol/kg given over 5-6 min via the right jugular vein.
This study was approved by the Animal Ethics Committee of the University of Western Australia. Male Sprague Dawley rats weighing 270 g to 350 g were kept under controlled housing conditions with 12 hour light-dark cycle with free access to food and water. Experimental animals were fasted overnight and subjected to permanent middle cerebral artery occlusion (MCAO) as follows.
Anaesthesia was induced with 4% isoflurane and a 2:1 mix of N2O and O2 via mask. Anaesthesia was maintained at 1.7-2% isoflurane. Cerebral blood flow (CBF) was monitored continuously using laser Doppler flowmetry (Blood FlowMeter, AD Instruments, Sydney, Australia). The probe was located 1 mm caudal and 4 mm lateral (right) to the bregma. A cannula was inserted in the right femoral artery to continuously monitor blood pressure and to provide samples for blood glucose and blood gas readings. Blood glucose was measured using a glucometer (MediSense Products, Abbott Laboratories, Bedford, Mass., USA) and blood gases were measured using a blood gas analyser (ABL5, Radiometer, Copenhagen, Denmark). Blood pressure was maintained at 80-100 mmHg. During surgery, rectal temperature was maintained at 37±0.5° C. and warming applied with a fan heater when necessary. For intravenous infusions, a length of PVC line primed with heparinised saline was tied in place in the right jugular vein, then externalised through a dorsal mid-scapular incision to a tether/swivel system (Instech Laboratories, Philadelphia, USA) designed to permit free movement.
The right common carotid artery (CCA) was exposed via a ventral neck incision. […] The isolated section of the ECA was ligated and cauterised to create a stump. The carotid body was removed and the pterygopalatine artery was ligated. A 4-0 nylon monofilament with a 0.39 mm diameter silicone tip (Doccol, Redlands, Calif., USA) was inserted through the ECA stump into the CCA and advanced rostrally into the internal carotid artery (ICA) until the laser Doppler flowmetry recorded a >30% decrease from baseline of cerebral blood flow. The monofilament was secured in two places (at the base of the ECA stump and on the ICA) for the remainder of the experiment. Animals were given post-operative analgesia consisting of pethidine (3 mg/kg intramuscular) and bupivacaine (1.5 mg/kg subcutaneously) at head and leg incision sites.
Post-surgery animals were allowed to recover in a climate-controlled chamber and their core body temperature monitored and maintained at 37±0.5° C. by a cooling/heating fan when required for 3-4 hours.
Animals were sacrificed 24 hours post-MCAO with intra-peritoneal injections of sodium pentobarbitone (900 mg/kg). […] Slices were scanned and images were analysed by an operator blind to treatment status using ImageJ 3rd edition (NIH, USA). The total infarct volume was determined by adding the areas of infarcted tissue on both sides of the 2 mm sections. These measured areas were multiplied by half slice thickness (1 mm), and corrected for cerebral oedema by multiplying the ratio of affected to normal hemisphere areas. […]

Series [2] concerns primary cortical neuronal cultures. The note with it: for effect of heparin on neuroprotective action: heparin 20 IU/ml with peptide or 40 IU/ml on cultures (FIGS. 39, 40). Here is the method: Briefly, cortical tissue from E18-E19 Sprague-Dawley rats was dissociated in Dulbecco's modified Eagle medium (DMEM; Invitrogen, Australia) supplemented with 1.3 mM L-cysteine, 0.9 mM NaHCOa, 10 units/ml papain (Sigma, USA) and 50 units/ml DNase (Sigma) and washed in cold DMEM/10% horse serum. Neurons were resuspended in Neurobasal (Invitrogen) containing 2% B27 supplement (B27; Invitrogen). Before seeding, 96-well sized glass wells (6 mm diameter, ProTech, Australia) or 96-well plastic plates (ProSciTech, Australia) were coated with poly-D-lysine overnight ([…]: 50 mg/mL; 70-150 K, Sigma). […] Neurons were plated to obtain ≈10,000 viable neurons for each well on day in vitro 11-12. […] On day in vitro 4 one third of the culture medium was removed and replaced with fresh Neurobasal/2% B27 containing the mitotic inhibitor, cytosine arabinofuraNOside (1 mM final concentration; Sigma). On day in vitro 8 one half of the culture medium was replaced with Neurobasal/2% B27.
To induce excitotoxicity, 50 μl of Neurobasal/2% B27 containing glutamic acid (200 μM) or kainic acid (400 μM) or NMDA (200 μM) was added to the culture wells (100 μM glutamic acid, 200 μM kainic acid and NMDA 100 μM final concentration). Cultures were incubated at 37° C. in the CO2 incubator for 5 minutes for glutamic acid, 45 minutes for kainic acid and 10 minutes for NMDA exposure, after which time the media was replaced with 100 μl of 50% Neurobasal/2% N2 supplement (Invitrogen) and 50% balanced salt solution (BSS; see below). Cultures were incubated for a further 24 hours at 37° C. in the CO2 incubator. The untreated controls with or without glutamic acid or kainic acid treatment received the same wash steps and media additions.
Following this step, cultures were treated as described above. Untreated controls with or without glutamic acid exposure received the same wash steps and media additions. In addition, a post-glutamic acid exposure CPP treatment (5 μM) experiment was performed for the R9 peptide and the JNKI-1D-TAT control peptide.
For pre-glutamic acid exposure experiments, neurons were exposed to peptide(s) for a 10 minute period, immediately before or 1, 2, 3, 4 or 5 hours prior to glutamic acid exposure. […] At the relevant peptide pre-treatment time, media was removed and replaced with 100 μl of Neurobasal/2%. […] Following 5-minute glutamic acid exposure, neuronal culture wells were treated as described above. For all experiments untreated controls with or without glutamic acid treatment underwent the same incubation steps and media additions.
Heparin (for injection) was obtained from Pfizer (1000 IU/ml). Two different heparin experiments were performed: 1. Peptides were incubated with heparin (20 IU/ml) in Neurobasal/B27 for 5 minutes at room temperature, before addition to culture wells (50 μl) for 15 minutes at 37° C. in the CO2 incubator. Following the incubation period, media in wells was removed and replaced with 100 μl of Neurobasal/2% B27 containing glutamic acid (100 μM), and subsequently treated as described above; 2. Media in wells was replaced with Neurobasal/2% B27 containing heparin (50 μl; 40 IU/ml) and incubated for 5 minutes at 37° C. in the CO2 incubator. After the incubation period, peptides or glutamate receptor blockers (MK801/CNQX) in Neurobasal/2% B27 (50 μl) were added to the culture wells and cultures incubated for a further 10 minutes at 37° C. in the CO2 incubator. Following the incubation period, media in wells was removed and replaced with 100 μl of Neurobasal/2% B27 containing glutamic acid (100 μM), and subsequently treated as described above. For all experiments, non-heparin treated peptide controls with glutamic acid treatment underwent the same incubation steps and media additions.
Twenty-four hours after insult, neuronal cultures were examined by light microscopy for qualitative assessment of neuronal cell viability.

The test system is the same in series [3]. The series can be described thus: In vitro ischemia / oxygen-glucose deprivation (OGD) model, neurons. Type of series: cell-based, rat. The note with it: for neuroprotection when added for 15 minutes after OGD: FIGS. 31, 20, 22, 1 μM and 5 μM in FIG. 31.
Method: Establishment of cortical cultures was as previously described (Meloni et al. 2001). Briefly, cortical tissue from E18-E19 Sprague-Dawley rats was dissociated in Dulbecco's modified Eagle medium (DMEM; Invitrogen, Australia) supplemented with 1.3 mM L-cysteine, 0.9 mM NaHCOa, 10 units/ml papain (Sigma, USA) and 50 units/ml DNase (Sigma) and washed in cold DMEM/10% horse serum. Neurons were resuspended in Neurobasal (Invitrogen) containing 2% B27 supplement (B27; Invitrogen). Before seeding, 96-well sized glass wells (6 mm diameter, ProTech, Australia) or 96-well plastic plates (ProSciTech, Australia) were coated with poly-D-lysine overnight (50 ml/well: 50 mg/mL; 70-150 K, Sigma). Excess poly-D-lysine solution was then removed and replaced with Neurobasal (containing 2% B27; 4% fetal bovine serum; 1% horse serum; 62.5 mM glutamate; 25 mM 2-mercaptoethanol; and 30 mg/mL streptomycin and 30 mg/mL penicillin). Neurons were plated to obtain ≈10,000 viable neurons for each well on day in vitro 11-12. Neuronal cultures were maintained in a CO2 incubator (5% CO2, 95% air balance, 98% humidity) at 37° C. On day in vitro 4 one third of the culture medium was removed and replaced with fresh Neurobasal/2% B27 containing the mitotic inhibitor, cytosine arabinofuraNOside (1 mM final concentration; Sigma). On day in vitro 8 one half of the culture medium was replaced with Neurobasal/2% B27. Cultures were used on day in vitro 11 or 12 after which time they routinely consist of >97% neurons and 1-3% astrocytes (Meloni et al. 2001).
The in vitro ischemia model used for primary cortical neuronal cultures was performed as previously described (Meloni et at 2011) Briefly, culture media was removed from wells (glass 96-well plate format) and washed with 315 μl of glucose free balanced salt solution (BSS; mM: 116 NaCl, 5.4 KCl, 1.8 CaCl2, 0.8 MgSO4, 1 NaH2PO4; pH 6.9) before the addition of 60 μl BSS containing cell penetrating or control peptides (see Table 1). A non-peptide positive control consisting of the glutamate receptor blockers (5 μM MK801/5 μM 6-cyano-7-nitroquinoxaline: MK801/CNQX) was also included. In vitro ischemia was initiated by placing wells in an anaerobic incubator (Don Whitely Scientific, England; atmosphere of 5% CO2, 10% H2 and 85% argon, 98% humidity) at 37° C. for 55 minutes. Upon removal from the anaerobic incubator, 60 μl of Neurobasal/2% N2 supplement was added to the wells and cultures incubated for a further 24 hours at 37° C. in the CO2 incubator. Control cultures received the same BSS wash procedures and media additions as ischemic treated cultures before incubation at 37° C. in the CO2 incubator.
Control cultures underwent the same BSS wash procedures and media additions as OGD treated cultures.
Twenty-four hours after insult, neuronal cultures were examined by light microscopy for qualitative assessment of neuronal cell viability. Neuronal viability was quantitatively measured by 3-(4,5,dimethyliazol-2-yl)-5-(3-carboxymethoxy-phenyl)-2-(4-sulfophenyl)-2H-tetrazolium salt (MTS) assay (Promega, Australia). The MTS assay measures the cellular conversion of the tetrazolium salt to a water-soluble brown formazan salt, which is detected spectrophotometrically at 490 nm. MTS absorbance data were converted to reflect proportional cell viability relative to both the untreated and treated controls, with the untreated control taken as 100% viability, and presented as mean±SEM. […] Viability data was analysed by ANOVA, followed by post-hoc Fischer's PLSD test, with P<0.05 values considered statistically significant. Four- to six wells were used in all assays.
The subject of series [4] is intracellular calcium influx in neuronal cultures. The series can be described thus: Intracellular calcium influx (Fura-2 AM) after glutamic acid. It is filed as cell-based, rat. The settings on record: peptide 5 μM for 10 min, removed before 100 μM glutamic acid (FIG. 44). (In general: Calcium assays in cells follow changes in intracellular calcium, usually with a dye or a luminescent sensor.)
Method: Fura-2 AM was used for intracellular calcium assessment. Representative fluorescent Fura-2 AM tracers; fluorescence intensity (FI) of neuronal cultures 30 sec before and following addition (arrow) of glutamic acid (100 μM final concentration). Peptides or glutamate receptor blockers were added to neuronal cultures for 10 min and removed (time 0) before glutamic acid. Values are mean±SE; n=3. Peptide concentration was 5 μM.
Briefly, cortical tissue from E18-E19 Sprague-Dawley rats was dissociated in Dulbecco's modified Eagle medium (DMEM; Invitrogen, Australia) supplemented with 1.3 mM L-cysteine, 0.9 mM NaHCOa, 10 units/ml papain (Sigma, USA) and 50 units/ml DNase (Sigma) and washed in cold DMEM/10% horse serum. Neurons were resuspended in Neurobasal (Invitrogen) containing 2% B27 supplement (B27; Invitrogen). Before seeding, 96-well sized glass wells (6 mm diameter, ProTech, Australia) or 96-well plastic plates (ProSciTech, Australia) were coated with poly-D-lysine overnight (50 ml/well: 50 mg/mL; 70-150 K, Sigma). Excess poly-D-lysine solution was then removed and replaced with Neurobasal (containing 2% B27; 4% fetal bovine serum; 1% horse serum; 62.5 mM glutamate; 25 mM 2-mercaptoethanol; and 30 mg/mL streptomycin and 30 mg/mL penicillin). Neurons were plated to obtain ≈10,000 viable neurons for each well on day in vitro 11-12. Neuronal cultures were maintained in a CO2 incubator (5% CO2, 95% air balance, 98% humidity) at 37° C. On day in vitro 4 one third of the culture medium was removed and replaced with fresh Neurobasal/2% B27 containing the mitotic inhibitor, cytosine arabinofuraNOside (1 mM final concentration; Sigma). On day in vitro 8 one half of the culture medium was replaced with Neurobasal/2% B27. Cultures were used on day in vitro 11 or 12 after which time they routinely consist of >97% neurons and 1-3% astrocytes (Meloni et al. 2001).

Series [5] has as its system brain endothelial cells (bEND3 cells). The series can be described thus: In vitro ischemia/OGD model, bEND3 cells. Type of series: cell-based. The settings on record: peptide during/after ischemia (FIG. 3c) or 15 min before OGD (FIGS. 23, 24).
Method: The in vitro ischemia model was also used for bEND3 cells, SH-SY5Y cells, and astrocytes. For bEND3 cells anaerobic incubation was extended to 2-3 hours and upon removal from the anaerobic incubator, 60 μl of DMEM/2% FCS was added to wells. […] Upon removal from the anaerobic incubator, 60 μl of DMEM/2% FCS was added to wells.
Twenty-four hours after insult, neuronal cultures were examined by light microscopy for qualitative assessment of neuronal cell viability. Neuronal viability was quantitatively measured by 3-(4,5,dimethyliazol-2-yl)-5-(3-carboxymethoxy-phenyl)-2-(4-sulfophenyl)-2H-tetrazolium salt (MTS) assay (Promega, Australia). The MTS assay measures the cellular conversion of the tetrazolium salt to a water-soluble brown formazan salt, which is detected spectrophotometrically at 490 nm. MTS absorbance data were converted to reflect proportional cell viability relative to both the untreated and treated controls, with the untreated control taken as 100% viability, and presented as mean±SEM. For studies using astrocytes, bEND3, and SH-Y5Y cells, raw MTS data was used to generate graphs. Viability data was analysed by ANOVA, followed by post-hoc Fischer's PLSD test, with P<0.05 values considered statistically significant. Four- to six wells were used in all assays.
In the next series the test system is primary rat astrocytes. The series is described as follows: Astrocyte toxicity model. Type of series: cell-based. The settings on record: 2.5 to 10 μM, 24 hour exposure (FIG. 43). As for the experimental part:
A brain endothelial cell line (bEND3) and a neuroblastoma cell line (SH-SY5Y) were also used for some experiments. bEND3 and SH-SY5Y cells were cultured using standard techniques in DMEM plus 5 or 15% foetal calf serum. Rat primary astrocytes were obtained and cultured as described for cortical neurons except DMEM plus 10% foetal calf serum was used instead of Neurobasal/2% B27, and the mitotic inhibitor, cytosine arabinofuraNOside was not used.
For neuronal cultures peptides were added to culture wells (96-well plate format) by removing media and adding 100 μl of 50% Neurobasal/2% N2 supplement and 50% BSS containing CPPs, JNKI-1 D-TAT or TAT-NR2B9c. Control cultures received of 50% Neurobasal/2% N2 supplement and 50% BSS media only. Cultures were incubation at 37° C. in the CO2 incubator for 20 hours, after which time cell viability was assessed using the MTS assay. For bEND3 cultures, peptides were added to culture wells (96-well plate format) by removing media and adding 100 μl of DMEM/2% FCS containing peptide. Control cultures received 100 μl of DMEM/2% FCS only, Cultures were incubation at 37° C. in the CO2 incubator for 0.5, 1 or 2 hours, after which time cell viability was assessed using the MTS assay. […] Cultures were incubation at 37° C. in the CO2 incubator for 24 hours, after which time cell viability was assessed using the MTS assay.
Twenty-four hours after insult, neuronal cultures were examined by light microscopy for qualitative assessment of neuronal cell viability. Neuronal viability was quantitatively measured by 3-(4,5,dimethyliazol-2-yl)-5-(3-carboxymethoxy-phenyl)-2-(4-sulfophenyl)-2H-tetrazolium salt (MTS) assay (Promega, Australia). The MTS assay measures the cellular conversion of the tetrazolium salt to a water-soluble brown formazan salt, which is detected spectrophotometrically at 490 nm. MTS absorbance data were converted to reflect proportional cell viability relative to both the untreated and treated controls, with the untreated control taken as 100% viability, and presented as mean±SEM. […]

Regarding `N=C(N)NCCC[C@H](NC(=O)[C@H](CCCNC(=N)N)NC(=O)[C@H](CCCNC(=N)N)NC(=O)[C@H](CCCNC(=N)N)NC(=O)[C@H](CCCNC(=N)N)NC(=O)[C@H](CCCNC(=N)N)NC(=O)[C@H](CCCNC(=N)N)NC(=O)[C@H](CCCNC(=N)N)NC(=O)[C@H](CCCNC(=N)N)NC(=O)[C@H](CCCNC(=N)N)NC(=O)[C@H](CCCNC(=N)N)NC(=O)[C@@H](N)CCCNC(=N)N)C(=O)O` [Peptide R12], the “neuroprotective activity in vivo” value in series [1] (1 μmol/kg intravenously 30 min post-MCAO) is listed as “possessed neuroprotective activity in vivo”. For the same compound, the “neuroprotection when added immediately after glutamic acid exposure” value in series [2] (0 min post-insult (FIG. 1d)) is listed as “highly effective”. For the same compound, the “neuroprotection, milder insult” value in series [2] (FIG. 1i, comparison at 0.5 μM and 1 μM) is recorded as “more effective than R9”. Also, the “neuroprotection, peptide present during the 5 minute glutamic acid insult only” value in series [2] (FIG. 28) is listed as “effective”. Also, the “neuroprotection, 10 minute pre-exposure removed immediately prior to insult” value in series [2] (FIG. 29, FIG. 14) is reported as “effective”. In series [2] (FIG. 30), the “neuroprotection, peptide for 10 minutes, 1 to 4 hours prior to glutamic acid insult” value is given as “effective”. Moreover, the “effect of heparin on neuroprotective action” value in series [2] is on record as “blocks neuroprotective actions”. Moreover, in series [2] (read-out: IC50: Glutamic acid model, Table 4, polyarginine peptides, from dose response graph FIG. 1e), the IC50 was determined as 440 nM. For the same compound, in series [3] (FIG. 32), the “neuroprotection, peptide for 10 minutes, 1 to 3 hours prior to OGD” value is on record as “effective”. The “neuroprotection when added for 15 minutes after OGD” value in series [3] is “Neuroprotection is displayed”. Also, the “neuroprotection when added post-in vitro ischemia/OGD” value in series [3] (added after anaerobic incubation until experiment end (FIGS. 3b, 16, 17)) was “displayed neuroprotective effects; also recorded: effective”. Also, the “calcium influx after glutamic acid” value in series [4] was “to varying degrees reduced calcium influx”.
As to H-rrrrrrrrr-NH2 [D-R9], the “reduction of infarct volume (brain damage)” value in series [1] (1 μmol/kg IV 30 min post-MCAO, infarct volume 24 h post-MCAO (FIGS. 5, 27)) is reported as “approximately 20%”. Further, the “effect of heparin on neuroprotective action” value in series [2] was “blocks neuroprotective actions”. Besides, the “calcium influx after glutamic acid” value in series [4] was “to varying degrees reduced calcium influx”.
For the compound PRRRRASRRIRRRRRPRVSRRRRRGGRRRR [Ptm4], the figures for the “protection of bEND3 cells (cell death / viability after in vitro ischemia/OGD)” value in series [5] and in series [5] (listed as ptm4) were “significantly increased cell viability” and “protective”, respectively. The “neuroprotection (neuronal viability)” value in series [2] (peptide 15 min prior to and during glutamic acid exposure, viability 24 h, MTS) is “neuroprotective”. In series [3], the “neuroprotection when added for 15 minutes after OGD” value is listed as “neuroprotective”. Further, the “neuroprotection in the OGD model (overall statement)” value in series [3] (discussion summary) is “neuroprotective”.
Consider PRRRRRSSSRPIRRRRRPRASRRRRRGGRRRR [Ptm1], for which the “astrocyte cell death following peptide exposure” value in the series on primary rat astrocytes is recorded as “did not cause significant astrocyte cell death”.
Consider PRRRRSSSRPVRRRRRPRVSRRRRRRGGRRRR [Ptm5], for which the “astrocyte cell death following peptide exposure” value in the series on primary rat astrocytes is reported as “did not cause significant astrocyte cell death”.
Take VSRRRRRRGGRRRR [LMWP]: the “astrocyte cell death following peptide exposure” value in the series on primary rat astrocytes is listed as “did not cause significant astrocyte cell death”.
